Test results taken from US9783522B2, “2-amino-pyridine and 2-amino-pyrimidine derivatives and medicinal use thereof” (MITSUBISHI TANABE PHARMA CORPORATION, priority 2014, dated 2017).

target: human recombinant ATX (Homo sapiens, UniProt Q13822); assay: Enzyme inhibitory test (choline release from LPC, fluorescence); assay type: biochemical; conditions: LPC substrate, room temperature 1 hr, read-out: Experimental Example 1 human ATX IC50
Method: A mixture (10 μL) of substrate and a set of choline quantification reagents (200 μM LPC (1-Oleoyl-sn-glycero-3-phosphocholine Sigma #L1881), 25 μM Amplex UltraRed reagent (Invitrogen), 0.1 U/mL Peroxidase (TOYOBO), 1 U/mL Choline oxidase (TOYOBO)), prepared with assay buffer (50 mM Tris (pH 8.0), 140 mM NaCl, 5 mM KCl, 1 mM CaCl2, 1 mM MgCl2, 0.1% BSA (Albumin from bovine serum, SIGMA), 0.0025% Triton X-100), enzyme (0.4 ng/μL human recombinant ATX) (10 μL), compound-containing solution (100 nL) were dispensed to a 384-well plate, incubated at room temperature for 1 hr and the fluorescence (Ex.525 nm/Em.598 nm) was measured. As the standard, choline chloride was used. With a blank free of enzyme was taken as inhibitory rate 100%, and a control free of inhibitor as inhibitory rate 0%, the inhibitory rate was calculated, and IC50 value was calculated from the inhibitory activity percentage at each concentration.

Row | Structure (SMILES) | IC50 [nM]
1 | COc1cc(-c2ccc(NCc3cccc(OC(F)(F)F)c3)nc2)ccc1C1CC1C(=O)O (stereo not shown) [Example 88] | 20
2 | COc1c(CCC(=O)O)cc(-c2ccc(NCc3cccc(OC(F)(F)F)c3)nc2)cc1C1COC1 [Example 92] | 23
3 | Cn1nc(C(=O)O)c2cc(-c3cnc(NCc4cccc(OC(F)(F)F)c4)nc3)ccc21 [Example 74] | 3
4 | CS(=O)(=O)CCCn1nc(C(=O)O)c2cc(-c3ccc(NCc4cccc(OC(F)(F)F)c4)nc3)ccc21 [Example 75] | 6
5 | COc1c(C(=O)O)cc(-c2cnc(NCc3cccc(OC(F)(F)F)c3)nc2)cc1-c1ccncc1 [Example 33, 2-methoxy-3-pyridin-4-yl-5-[2-(3-trifluoromethoxy-benzylamino)-pyrimidin-5-yl]-benzoic acid] | 10
6 | COc1ccc(-c2ccc(NCc3cccc(OC(F)(F)F)c3)nc2)cc1CC(=O)O [Example 109] | 12
7 | COc1c(C#N)cc(-c2cnc(NCc3cccc(OC(F)(F)F)c3)nc2)cc1CCC(=O)O [Example 85] | 7
8 | COCCn1nc(C(=O)O)c2cc(-c3ccc(NCc4cccc(OC(F)(F)F)c4)nc3)ccc21 [Example 73] | 9
9 | O=C(O)c1cc(-c2cnc(NCc3cccc(OC(F)(F)F)c3)nc2)cc(OC2CNC2)c1Cl [Example 30, 3-(azetidin-3-yloxy)-2-chloro-5-[2-(3-trifluoromethoxy-benzylamino)-pyrimidin-5-yl]-benzoic acid] | 22
10 | COc1c(C(=O)O)cc(-c2cnc(NCc3cccc(OC(F)(F)F)c3)nc2)cc1-c1ccoc1 [Example 140] | 31
11 | COc1ccc(-c2ccc(NCc3cccc(OC(F)(F)F)c3)nc2)cc1CCC(=O)O [Example 22, 3-{2-methoxy-5-[6-(3-trifluoromethoxy-benzylamino)-pyridin-3-yl]-phenyl}-propionic acid] | 33
12 | O=C(O)CCc1cc(-c2cnc(NCc3cccc(OC(F)(F)F)c3)nc2)ccc1Cl [Example 11, 3-{2-chloro-5-[2-(3-trifluoromethoxy-benzylamino)-pyrimidin-5-yl]-phenyl}-propionic acid] | 13
13 | COc1ccc(-c2cnc(NCc3cccc(OC(F)(F)F)c3)nc2)cc1CCC(=O)O [Example 21, 3-{2-methoxy-5-[2-(3-trifluoromethoxy-benzylamino)-pyrimidin-5-yl]-phenyl}-propionic acid] | 37
14 | COCCOc1cc(-c2cnc(NCc3cccc(OC(F)(F)F)c3)nc2)cc(C(=O)O)c1Cl [Example 132] | 15
15 | O=C(O)c1cc(-c2cnc(NCc3cccc(OC(F)(F)F)c3)nc2)cc(OC2CCOCC2)c1Cl [Example 133] | 10

Results, then the compound that gave them:

Row | IC50 [nM] | Structure (SMILES)
16 | 43 | COc1ccc(-c2ccc(NCc3cccc(OC(F)(F)F)c3)nc2)cc1OCC(=O)O [Example 129]
17 | 2 | COc1ccc(-c2ccc(NCc3cccc(OC(F)(F)F)c3)nc2)nc1[C@H]1C[C@@H]1C(=O)O [16 (compound 1a), (1S,2S)-2-[5-methoxy-6′-(3-trifluoromethoxy-benzylamino)-[2,3′]bipyridinyl-6-yl]-cyclopropanecarboxylic acid]
18 | 17 | COc1c(C#N)cc(-c2ccc(NCc3cccc(OC(F)(F)F)c3)nc2)cc1CCC(=O)O [Example 10, 3-{3-cyano-2-methoxy-5-[6-(3-trifluoromethoxy-benzylamino)-pyridin-3-yl]-phenyl}-propionic acid]
19 | 46 | O=C(O)c1cccc2nc(-c3ccc(NCc4cccc(OC(F)(F)F)c4)nc3)[nH]c12 [Example 2, 2-[6-(3-trifluoromethoxy-benzylamino)-pyridin-3-yl]-3H-benzimidazole-4-carboxylic acid]
20 | 92 | COc1cc(-c2ccc(NCc3cccc(OC(F)(F)F)c3)nc2)ccc1OC[C@H]1CC[C@H](C(=O)O)CC1 [Example 126]
21 | 24 | COc1c(Cn2ccnc2)cc(-c2ccc(NCc3cccc(OC(F)(F)F)c3)nc2)cc1C(C)(C)C(=O)O [Example 108]
22 | 3 | Cn1nc(C(=O)O)c2cc(-c3ccc(NCc4cccc(OC(F)(F)F)c4)nc3)ccc21 [Example 7, 1-methyl-5-[6-(3-trifluoromethoxy-benzylamino)-pyridin-3-yl]-1H-indazole-3-carboxylic acid]
23 | 31 | O=C(O)c1cc(-c2cnc(NCc3cccc(OC(F)(F)F)c3)nc2)cc(OC2COC2)c1Cl [Example 136]
24 | 10 | COc1ccc(-c2ccc(NCc3cccc(OC(F)(F)F)c3)nc2)c2[nH]nc(C(=O)O)c12 [Example 69]
25 | 93 | COc1ccc(-c2cnc(NCc3cccc(OC(F)(F)F)c3)nc2)cc1C(=O)O [Example 156]
26 | 47 | COc1ccc(-c2ccc(NCc3cccc(C(C)C)c3)nc2)cc1C(=O)O [Example 176]
27 | 75 | O=C(O)CN1CCN(c2ccc(-c3ccc(NCc4cccc(OC(F)(F)F)c4)nc3)cc2F)C1=O [Example 44]
28 | 35 | O=C(O)c1ccc2nc(-c3ccc(NCc4cccc(OC(F)(F)F)c4)nc3)oc2c1 [Example 3, 2-[6-(3-trifluoromethoxy-benzylamino)-pyridin-3-yl]-benzoxazole-6-carboxylic acid]
29 | 15 | COc1c(C#N)cc(-c2ccc(NCc3cccc(OC(F)(F)F)c3)nc2)cc1C(C)(C)C(=O)O [Example 26, 2-{3-cyano-2-methoxy-5-[6-(3-trifluoromethoxy-benzylamino)-pyridin-3-yl]-phenyl}-2-methyl-propionic acid]
30 | 25 | COc1c(C#N)cc(-c2ccc(NCc3cccc(OC(F)(F)F)c3)nc2)cc1C(=O)O [Example 63]
31 | 83 | COc1ccc(-c2ccc(NCc3cccc(OC(F)(F)F)c3)nc2)cc1C(=O)O [Example 34, 2-methoxy-5-[6-(3-trifluoromethoxy-benzylamino)-pyridin-3-yl]-benzoic acid]
32 | 2 | COc1ccc(-c2cnc(NCc3cccc(OC(F)(F)F)c3)nc2)nc1[C@H]1C[C@@H]1C(=O)O [17 (compound 4a), (1S,2S)-2-{3-methoxy-6-[2-(3-trifluoromethoxy-benzylamino)-pyrimidin-5-yl]-pyridin-2-yl}-cyclopropanecarboxylic acid]
33 | 7 | COc1cc(-c2ccc(NCc3cccc(OC(F)(F)F)c3)nc2)cc(OC)c1CCC(=O)O [Example 98]

target: T1, ATX activity in plasma (Rattus norvegicus, UniProt Q64610); assay: Measurement of ATX activity in plasma (ex vivo) after oral administration to rats; conditions: male Wistar rat, 8 hr after administration, plasma ATX activity vs solvent control
T1 construct: from tissue; host or cells: plasma of male Wistar rats after oral dosing (ex vivo)
Method: A compound administration solution prepared by wet pulverization in a mixer mill (type: MM400) for 10 min and adjusting to a given concentration with 0.5% aqueous carboxymethylcellulose solution was orally administered to male Wistar rat (5-week-old when used) at 5 mL/kg. Blood samples were collected from the cervical vein over time at 8 to 24 hr after administration. The blood was heparin-treated using a micro blood collection tube Capiject (CJ-AL, TERUMO CORPORATION), and the plasma was separated by centrifugation (4° C., 12,000 rpm, 2 min), and preserved at −80° C. The rats after blood sampling were euthanized by exsanguination from the caudal vena cava under isoflurane inhalation anesthesia. The measurement of ATX activity in plasma was evaluated using the concentration of choline in the plasma, which was liberated from lysophosphatidylcholine (substrate of ATX) by the lysophospholipase D activity of ATX, as an index. An equal amount of 2× assay buffer (200 mM Tris-HCl pH9.0, 10 mM MgCl2, 1 M NaCl, 0.1% Triton X-100) is added to plasma (12 μL) and reacted at 37° C. for 6 hr. The reaction mixture (10 μL) after reaction for 6 hr and 45 μL of reagent R1 solution (100 mM Tris-HCl pH 8.0, 0.5 mM TOOS, 10 U/mL peroxidase, 0.01% Triton X-100) were added and blended and absorbance at 550-700 nm was measured and used as a prevalue. As the standard, choline chloride was used. 1 mM choline chloride was diluted with 2× assay buffer up to 7 steps in 2-fold serial dilution, R1 solution was treated similarly and the absorbance was measured. Furthermore, 15 μL of reagent R2 solution (100 mM Tris-HCl pH 8.0, 1 mM 4-aminoantipyrine, 10 U/mL choline oxidase, 0.01% Triton X-100) was added, and the mixture was reacted at room temperature for 10 min, and absorbance at 550-700 nm was measured. The choline concentration per reaction time was calculated from the difference between the absorbance after R2 solution addition and prevalue measured before R2 addition and used as ATX activity value. inhibitory activity (%)=100×{1-[choline concentration (μM) of test substance administration group/choline concentration (μM) of solvent control group]} <calculating formula>

Row | Experimental Example 2 rat single administration test (inhibitory activity (%) at 8 hr after 1 mg/kg oral administration) [%] | Structure (SMILES)
34 | 84 | COc1c(C#N)cc(-c2ccc(NCc3cccc(OC(F)(F)F)c3)nc2)cc1CCC(=O)O [Example 10, 3-{3-cyano-2-methoxy-5-[6-(3-trifluoromethoxy-benzylamino)-pyridin-3-yl]-phenyl}-propionic acid]
35 | 88 | COc1c(C#N)cc(-c2cnc(NCc3cccc(OC(F)(F)F)c3)nc2)cc1CCC(=O)O [Example 85]
36 | 82 | COc1ccc(-c2cnc(NCc3cccc(OC(F)(F)F)c3)nc2)cc1C(=O)O [Example 156]
37 | 88 | COc1ccc(-c2cnc(NCc3cccc(OC(F)(F)F)c3)nc2)nc1[C@H]1C[C@@H]1C(=O)O [17 (compound 4a), (1S,2S)-2-{3-methoxy-6-[2-(3-trifluoromethoxy-benzylamino)-pyrimidin-5-yl]-pyridin-2-yl}-cyclopropanecarboxylic acid]
